# Legend:
# [1] = Effect of phytate consumption on bone mass, axial densitometry; format: in vivo; conditions: overall conclusion of the densitometry study
# Experimental: A study was carried out evaluating the effect of phytate consumption on the level of bone mass measured by axial densitometry and peripheral heel densitometry. In total, 433 axial densitometer measurements and 1473 peripheral heel densitometer measurements were made. The consumption of phytate by all subjects was evaluated by using a dietetic questionnaire. Subjects were classified into 4 groups (group 1, group 2, group 3 and group 4) according to increasing levels of phytate consumption.
# [2] = Adsorption of phytate on hydroxyapatite crystals; format: physicochemical; conditions: TRIS buffer pH 7.4, stirred 8 hours
# Experimental: Three homogenous suspensions of crystallised calcium phosphate in the form of hydroxyapatite in TRIS buffer at pH 7.4 were prepared. These suspensions were stirred for 8 hours in the presence of 1, 3 and 12 uM of phytate, respectively. Later, the suspensions were filtered and the amount of phytate adsorbed on the hydroxyapatite crystals was determined by difference between the initial and final phytate in the solution at pH 7.4.
# [3] = Dissolution of hydroxyapatite previously treated with phytate at pH 7.4; format: physicochemical; conditions: 1, 6 and 12 uM phytate fixed at pH 7.4 stage; dissolution at pH 5.0 acetate buffer over 24 hours; FIG. 1
# Experimental: FIG. 1 is a graph showing the quantity of calcium dissolved on treating hydroxyapatite, which has been previously treated with various concentrations of phytate at pH 7.4, for a period of 24 hours.
# (§1) A homogenous suspension of crystalline calcium phosphate in the form of hydroxyapatite in TRIS buffer at pH 7.4 was prepared. This suspension was stirred for 8 hours. Then the crystals obtained were filtered and dried to constant weight. Then these crystals were resuspended at pH 5.0 (in acetate buffer) and the kinetics of dissolution of the salt was determined over 24 hours, continuously stirring the system. The kinetics were followed by determining the quantity of dissolved calcium and phosphorus by atomic emission spectroscopy (using inductively coupled plasma).
# This experiment was repeated using concentrations of 1, 6 and 12 uM of phytate during the stage at pH 7.4 with the aim of fixing this compound on the hydroxyapatite structure.
# [4] = Dissolution of hydroxyapatite in the presence of phytate at pH 5; format: physicochemical; conditions: 12 and 24 uM phytate present in pH 5 stage; over 24 hours; FIG. 2
# Experimental: FIG. 2 is a graph showing the quantity of calcium dissolved on treating hydroxyapatite for a period of 24 hours in the presence of various concentrations of phytate at pH5.
# as §1
# This experiment was repeated using concentrations of 12 and 24 uM of phytate in the pH 5 stage with the aim of studying the inhibitory effect of dissolution by phytate present in the solution.
smiles,measurement,setting,value
"O=P(O)(O)O[C@H]1[C@H](OP(=O)(O)O)[C@@H](OP(=O)(O)O)[C@H](OP(=O)(O)O)[C@@H](OP(=O)(O)O)[C@H]1OP(=O)(O)O [phytate, myo-inositol hexaphosphate]",effect of consumption of a diet rich in phytate on bone mass,[1],higher bone mass
same,phytate present in the solution remained fixed to the calcium phosphate structure (hydroxyapatite),[2]; 1 uM phytate,62%
same,phytate present in the solution remained fixed to the calcium phosphate structure (hydroxyapatite),[2]; 3 uM phytate,66%
same,phytate present in the solution remained fixed to the calcium phosphate structure (hydroxyapatite),[2]; 12 uM phytate,56%
same,inhibition of dissolution of hydroxyapatite (dissolved calcium),[3],capable of inhibiting the dissolution of the salt
same,inhibition of dissolution of hydroxyapatite (dissolved calcium),[4],capable of inhibiting the dissolution of the salt

# — patent US8377909B2, “Use of phytate as agent inhibiting dissolution of crystals of calcium salts for the prevention of osteoporosis” (Universitat de les Illes Balears, priority 2006, dated 2013)
